Experimental data: ChEMBL document CHEMBL1201862, “PubChem BioAssay data set” (2004)
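Growth conditions: 96-well plates. Treatment: test compound, 48 hours, 5 concentrations. Analysis: linear interpolation between bracketing concentrations; unreached endpoints set to highest concentration. GI50 marks 50% less growth.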 Activity calls are given as the source filed them. Cut-off read from the data, not from the text of the source: active = GI50 up to about 1.1 µM and inactive = higher.

What was measured:
Assay in all cases: NCI-60 cell line screen, 48 h
[1] = system: 786-0
[2] = system: A498
[3] = system: A549
[4] = system: ACHN
[5] = system: CAKI-1
[6] = system: CCRF-CEM
[7] = system: COLO 205
[8] = system: DLD-1
[9] = system: DMS-114
[10] = system: DMS-273
[11] = system: HCC 2998
[12] = system: HCT-116
[13] = system: HCT-15
[14] = system: HL-60
[15] = system: HOP-18
[16] = system: HOP-62
[17] = system: HOP-92
[18] = system: HT-29
[19] = system: IGROV-1
[20] = system: K562
[21] = system: KM-20L2
[22] = system: KM12
[23] = system: LOX IMVI
[24] = system: LXFL 529
[25] = system: M14
[26] = system: M19-MEL
[27] = system: MOLT-4
[28] = system: Malme-3M
[29] = system: NCI-H226
[30] = system: NCI-H23
[31] = system: NCI-H460
[32] = system: NCI-H522
[33] = system: OVCAR-3
[34] = system: OVCAR-4
[35] = system: OVCAR-8
[36] = system: RPMI-8226
[37] = system: RXF 631
[38] = system: SF-268
[39] = system: SF-295
[40] = system: SF-539
[41] = system: SK-MEL-28
[42] = system: SK-MEL-2
[43] = system: SK-MEL-5
[44] = system: SK-OV-3
[45] = system: SN12C
[46] = system: SNB-19
[47] = system: SNB-75
[48] = system: SR
[49] = system: SW-620
[50] = system: TK-10
[51] = system: U-251
[52] = system: UACC-257
[53] = system: UACC-62
[54] = system: UO-31
[55] = system: EKVX
[56] = system: OVCAR-5
[57] = system: RXF 393
[58] = system: SNB-78
[59] = system: XF498

CC12CC/C(=N/NC(N)=O)C3C1CCCC32
GI50 [1]: > 100 µM (inactive) | GI50 [2]: > 100 µM (inactive) | GI50 [3]: > 100 µM (inactive) | GI50 [4]: > 100 µM (inactive) | GI50 [5]: > 100 µM (inactive) | GI50 [6]: > 100 µM (inactive) | GI50 [7]: > 100 µM (inactive) | GI50 [8]: > 100 µM (inactive) | GI50 [9]: > 100 µM (inactive) | GI50 [10]: > 100 µM (inactive) | GI50 [11]: > 100 µM (inactive) | GI50 [12]: > 100 µM (inactive) | GI50 [13]: > 100 µM | GI50 [14]: > 100 µM (inactive) | GI50 [15]: > 100 µM (inactive) | GI50 [16]: > 100 µM (inactive) | GI50 [17]: > 100 µM (inactive) | GI50 [18]: > 100 µM (inactive) | GI50 [19]: > 100 µM (inactive) | GI50 [20]: > 100 µM (inactive) | GI50 [21]: > 100 µM (inactive) | GI50 [22]: > 100 µM (inactive) | GI50 [23]: > 100 µM (inactive) | GI50 [24]: > 100 µM (inactive) | GI50 [25]: > 100 µM (inactive) | GI50 [26]: > 100 µM (inactive) | GI50 [27]: > 100 µM (inactive) | GI50 [28]: > 100 µM (inactive) | GI50 [29]: > 100 µM (inactive) | GI50 [30]: > 100 µM (inactive) | GI50 [31]: > 100 µM (inactive) | GI50 [32]: > 100 µM (inactive) | GI50 [33]: > 100 µM (inactive) | GI50 [34]: > 100 µM (inactive) | GI50 [35]: > 100 µM (inactive) | GI50 [36]: > 100 µM (inactive) | GI50 [37]: > 100 µM (inactive) | GI50 [38]: > 100 µM (inactive) | GI50 [39]: > 100 µM (inactive) | GI50 [40]: > 100 µM (inactive) | GI50 [41]: > 100 µM (inactive) | GI50 [42]: > 100 µM (inactive) | GI50 [43]: > 100 µM (inactive) | GI50 [44]: > 100 µM (inactive) | GI50 [45]: > 100 µM (inactive) | GI50 [46]: > 100 µM (inactive) | GI50 [47]: > 100 µM (inactive) | GI50 [48]: > 100 µM (inactive) | GI50 [49]: > 100 µM (inactive) | GI50 [50]: > 100 µM (inactive) | GI50 [51]: > 100 µM (inactive) | GI50 [52]: > 100 µM (inactive) | GI50 [53]: > 100 µM (inactive) | GI50 [54]: > 100 µM (inactive)

COc1ccc(/C(Cl)=C(\C=O)c2ccc(Cl)cc2)cc1
GI50 [2]: 30.1 µM (inactive) | GI50 [3]: 5.61 µM (inactive) | GI50 [4]: 3.27 µM (inactive) | GI50 [5]: 9.51 µM (inactive) | GI50 [6]: 2.94 µM (inactive) | GI50 [8]: 4.85 µM (inactive) | GI50 [9]: 4.15 µM (inactive) | GI50 [10]: 4.34 µM (inactive) | GI50 [55]: 5.07 µM (inactive) | GI50 [11]: 23.2 µM (inactive) | GI50 [12]: 4.02 µM (inactive) | GI50 [13]: 3.41 µM | GI50 [14]: 3.46 µM (inactive) | GI50 [15]: 30.3 µM (inactive) | GI50 [16]: 19.4 µM (inactive) | GI50 [18]: 4.84 µM (inactive) | GI50 [19]: 7.71 µM (inactive) | GI50 [20]: 3.81 µM (inactive) | GI50 [21]: 6.41 µM (inactive) | GI50 [23]: 3.45 µM (inactive) | GI50 [24]: 9.23 µM (inactive) | GI50 [25]: 14.1 µM (inactive) | GI50 [26]: 9.77 µM (inactive) | GI50 [27]: 2.63 µM (inactive) | GI50 [28]: 23.3 µM (inactive) | GI50 [29]: 6.35 µM (inactive) | GI50 [30]: 3.56 µM (inactive) | GI50 [31]: 3.81 µM (inactive) | GI50 [32]: 2.19 µM (inactive) | GI50 [33]: 4.68 µM (inactive) | GI50 [34]: 8.61 µM (inactive) | GI50 [56]: 57.5 µM (inactive) | GI50 [35]: 4.41 µM (inactive) | GI50 [57]: 10.7 µM (inactive) | GI50 [37]: 3.64 µM (inactive) | GI50 [38]: 6.11 µM (inactive) | GI50 [39]: 4.4 µM (inactive) | GI50 [40]: 9.16 µM (inactive) | GI50 [42]: 3.82 µM (inactive) | GI50 [43]: 11.2 µM (inactive) | GI50 [44]: 40.9 µM (inactive) | GI50 [45]: 3.08 µM (inactive) | GI50 [46]: 7.01 µM (inactive) | GI50 [47]: 4.27 µM (inactive) | GI50 [58]: 6.85 µM (inactive) | GI50 [48]: 2.69 µM (inactive) | GI50 [49]: 4.12 µM (inactive) | GI50 [50]: 6.15 µM (inactive) | GI50 [51]: 3.79 µM (inactive) | GI50 [52]: 11 µM (inactive) | GI50 [53]: 10.1 µM (inactive) | GI50 [54]: 4.71 µM (inactive)

CCC12CCC(O)C1N(C)CCC2Sc1ccccc1 (stereo not given)
GI50 [1]: > 100 µM (inactive) | GI50 [2]: > 100 µM (inactive) | GI50 [3]: > 100 µM (inactive) | GI50 [4]: > 100 µM (inactive) | GI50 [6]: 77.4 µM (inactive) | GI50 [7]: 80 µM (inactive) | GI50 [9]: 82.4 µM (inactive) | GI50 [10]: > 100 µM (inactive) | GI50 [55]: > 100 µM (inactive) | GI50 [11]: 29.9 µM (inactive) | GI50 [12]: 70 µM (inactive) | GI50 [13]: > 100 µM | GI50 [14]: 22.9 µM (inactive) | GI50 [15]: 46.7 µM (inactive) | GI50 [16]: > 100 µM (inactive) | GI50 [17]: 28.6 µM (inactive) | GI50 [18]: 34.8 µM (inactive) | GI50 [19]: > 100 µM (inactive) | GI50 [20]: 37.4 µM (inactive) | GI50 [21]: 41.3 µM (inactive) | GI50 [22]: 52.8 µM (inactive) | GI50 [23]: > 100 µM (inactive) | GI50 [25]: > 100 µM (inactive) | GI50 [26]: > 100 µM (inactive) | GI50 [27]: 28.5 µM (inactive) | GI50 [28]: 35.2 µM (inactive) | GI50 [29]: 23.4 µM (inactive) | GI50 [30]: > 100 µM (inactive) | GI50 [31]: > 100 µM (inactive) | GI50 [32]: > 100 µM (inactive) | GI50 [33]: > 100 µM (inactive) | GI50 [34]: > 100 µM (inactive) | GI50 [35]: > 100 µM (inactive) | GI50 [36]: 59.3 µM (inactive) | GI50 [57]: > 100 µM (inactive) | GI50 [37]: > 100 µM (inactive) | GI50 [38]: 75.5 µM (inactive) | GI50 [39]: 76.2 µM (inactive) | GI50 [40]: > 100 µM (inactive) | GI50 [41]: 75.3 µM (inactive) | GI50 [42]: > 100 µM (inactive) | GI50 [43]: 33 µM (inactive) | GI50 [44]: > 100 µM (inactive) | GI50 [45]: > 100 µM (inactive) | GI50 [46]: > 100 µM (inactive) | GI50 [47]: 24.8 µM (inactive) | GI50 [58]: > 100 µM (inactive) | GI50 [49]: > 100 µM (inactive) | GI50 [50]: > 100 µM (inactive) | GI50 [51]: 78.2 µM (inactive) | GI50 [52]: 61.2 µM (inactive) | GI50 [53]: > 100 µM (inactive) | GI50 [54]: 28.8 µM (inactive) | GI50 [59]: 26.4 µM (inactive)
